As a reminder, the solubility (kinetic) is the concentration staying in solution when a stock, usually in DMSO, is diluted into the medium.

Values after ≈ are worked out from the molar mass of the structure shown.

The conditions of the data set: buffer; pH 7.4; 200.0 µM.
As for `Cc1ccc(S(=O)(=O)CC(O)COc2ccccc2C#N)cc1` (stereo not given), the kinetic solubility was > 49.7 µg/mL.

For `c1ccc(COc2ccccc2CNC2CCCC2)cc1`, the kinetic solubility was 38.5 µg/mL (≈ 137 µM).

As to `O=C(c1ccco1)N1CCN(c2ccc([N+](=O)[O-])cc2Cl)CC1`, the solubility (kinetic) stood at 3.8 µg/mL (≈ 11.3 µM). Next, `COCCn1c(C)cc(C(=O)CSc2nc(C)c(C)c(C)n2)c1C`: 45.3 µg/mL (≈ 130 µM); `O=C(NCC1CCCCC1)c1ccc([N+](=O)[O-])cc1`: 5.1 µg/mL (≈ 19.4 µM); `O=C(CCNC(=O)c1ccccc1Cl)NCc1cccnc1`: > 47.7 µg/mL. Take `Cc1ccccc1NC(=O)Nc1cnccn1`: the kinetic solubility is 12.4 µg/mL (≈ 54.3 µM). With `CC1(C)Cc2ccccc2/C(=C/C(=O)c2ccccc2)N1` the figure was < 0.6 µg/mL; with `CCOc1ccc(NC(=O)N(C2CCCC2)C2CCN(C(C)=O)CC2)cc1`, > 56 µg/mL. In turn, `COC(=O)c1sc(NC(=O)/C=C/c2ccccc2Cl)nc1C` had a kinetic solubility of 1.5 µg/mL (≈ 4.45 µM). `Cc1cccc(N2Cc3ccc(Br)cc3C2)c1`: the kinetic solubility is 4.8 µg/mL (≈ 16.7 µM). Next, `O=c1cc(COc2ncnc3ccccc23)nc2sccn12`: > 46.5 µg/mL.

Take `COc1ccccc1NC(=O)COC(=O)c1cc(C)oc1C`: the kinetic solubility amounted to 6.7 µg/mL (≈ 22.1 µM). Turning to `Cc1ccc(C(=O)Oc2ccc(N3C(=O)CCC3=O)c(C)c2)cc1`, the solubility (kinetic) was < 0.7 µg/mL. With `O=C(NCCc1ccccc1)C(=O)NCC1CCNCC1` the figure was > 43.4 µg/mL; with `COC(=O)C1CCCN1S(=O)(=O)c1ccc([N+](=O)[O-])cc1` (stereo not given), > 47.1 µg/mL.

Take `COc1ccc(CCNC(=O)COC(=O)CCC(=O)c2cccs2)cc1OC`: the solubility (kinetic) was > 60.8 µg/mL. With `CCOC(=O)Nc1ccc(OC)c([N+](=O)[O-])c1` the figure was > 36 µg/mL. With `Cc1oc(C(C)(C)C)cc1C(=O)Nc1ccc(N2CCOCC2)cc1` the figure was 4.3 µg/mL (≈ 12.6 µM); with `COc1ccc(S(=O)(=O)n2c([N+](=O)[O-])cnc2C)cc1OC`, > 49.1 µg/mL.

Molecule `COc1cccc(C(=O)Nc2cccc(NC(=O)c3cccs3)c2)c1` returned a solubility (kinetic) of 13.5 µg/mL (≈ 38.3 µM). With `CCCCSc1nc(O)cc(=O)n1CC` the figure was 33.4 µg/mL (≈ 146 µM); with `COc1ccc(CNC(=O)CN2C(=O)c3ccccc3C2=O)cc1`, 4.4 µg/mL (≈ 13.6 µM); with `CCC(C)NC(=O)c1ccc(C(=O)c2ccccc2)cc1` (stereo not given), 41.6 µg/mL (≈ 148 µM). As to `COC(=O)c1ccc(N2C(=O)C3C4C=CC(CC4)C3C2=O)cc1` (stereo not given), the solubility (kinetic) came out at 20.1 µg/mL (≈ 64.6 µM).

Take `O=C(NC1CCCCC1)C1CC(=O)N(Cc2ccccc2)C1` (stereo not given): the solubility (kinetic) is > 45.1 µg/mL.

For the molecule `CC(C)C(Nc1ccc(C(F)(F)F)cc1[N+](=O)[O-])C(=O)O` (stereo not given), the solubility (kinetic) was > 45.9 µg/mL. With `CC(=O)c1ccc(NC(=O)CCCC(=O)c2ccccc2)cc1` the figure was 3.6 µg/mL (≈ 11.6 µM); with `CCOC(=O)c1cc2c(ccc3nc(C)c(C)c32)[nH]c1C`, < 0.3 µg/mL. With `COc1ccc(C(CNC(=O)c2cc(S(=O)(=O)NCc3ccco3)ccc2C)N(C)C)cc1` (stereo not given) the figure was > 70.7 µg/mL; with `Cn1c(=O)c2c(ncn2CC(=O)Nc2nccs2)n(C)c1=O`, 26.1 µg/mL (≈ 81.5 µM).

In turn, `CCC(C(=O)Nc1ccsc1C(=O)OC)c1ccccc1` (stereo not given) had a solubility (kinetic) of 5.8 µg/mL (≈ 19.1 µM).

With `O=C(CNC(=O)c1ccc(-c2ccccc2)cc1)Nc1cccc(CO)c1`, the kinetic solubility is 9.3 µg/mL (≈ 25.8 µM).

Regarding `COc1ccc(NC(=O)CN2CCN(S(=O)(=O)N(C)C)CC2)cc1`, the solubility (kinetic) is > 53.5 µg/mL. Molecule `NS(=O)(=O)c1cccc(NC(=O)COC(=O)/C=C/c2nc3ccccc3s2)c1` gave a solubility (kinetic) of 22.8 µg/mL (≈ 54.6 µM). Next, `COC(=O)c1ccc(COC(=O)CNC(=O)C2CCCCC2)cc1`: 16.3 µg/mL (≈ 48.9 µM); `COc1ccc(NC(=O)CNc2ccccc2C(C)=O)cc1S(=O)(=O)N1CCOCC1`: 63.9 µg/mL (≈ 143 µM). Next, `CCCN1CCN(C(=O)c2oc3c(Cl)cccc3c2C)CC1`: 35.7 µg/mL (≈ 111 µM); `CCCCN1C(=O)c2ccc(C(=O)N(C)CC(=O)Nc3ccc(OCC)c(OCC)c3)cc2C1=O`: 17.5 µg/mL (≈ 36.3 µM); `O=C1/C(=C/c2ccc([N+](=O)[O-])cc2)Oc2cc(O)ccc21`: 6.1 µg/mL (≈ 21.5 µM).

Values taken from PubChem BioAssay AID1996.
